Measured values reported in patent US9718788B2, “Heteroaryl compounds useful as inhibitors of E1 activating enzymes” (MILLENNIUM PHARMACEUTICALS, INC., priority 2006, dated 2017).

Molecular target: T1, recombinant human NAE enzyme (Homo sapiens, UniProt Q8TBC4)
T1 construct: His (N); made in house; host or cells: Sf9 insect cells (baculovirus, Bac-to-Bac)
T1 sequence (Q8TBC4 1-463): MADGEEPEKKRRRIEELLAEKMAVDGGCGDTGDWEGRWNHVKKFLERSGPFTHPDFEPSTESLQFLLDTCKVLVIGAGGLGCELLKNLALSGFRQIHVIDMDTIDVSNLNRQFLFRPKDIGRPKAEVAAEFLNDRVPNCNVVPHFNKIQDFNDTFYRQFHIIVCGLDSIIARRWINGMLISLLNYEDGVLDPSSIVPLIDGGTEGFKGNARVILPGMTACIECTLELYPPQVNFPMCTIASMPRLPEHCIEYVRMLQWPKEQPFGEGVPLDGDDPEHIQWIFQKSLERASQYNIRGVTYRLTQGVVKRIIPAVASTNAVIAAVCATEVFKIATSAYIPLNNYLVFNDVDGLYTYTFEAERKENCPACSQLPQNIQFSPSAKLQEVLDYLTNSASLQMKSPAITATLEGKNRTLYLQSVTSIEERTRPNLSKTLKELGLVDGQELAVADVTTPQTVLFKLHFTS
T1 sequence (Q13564 1-534 partner): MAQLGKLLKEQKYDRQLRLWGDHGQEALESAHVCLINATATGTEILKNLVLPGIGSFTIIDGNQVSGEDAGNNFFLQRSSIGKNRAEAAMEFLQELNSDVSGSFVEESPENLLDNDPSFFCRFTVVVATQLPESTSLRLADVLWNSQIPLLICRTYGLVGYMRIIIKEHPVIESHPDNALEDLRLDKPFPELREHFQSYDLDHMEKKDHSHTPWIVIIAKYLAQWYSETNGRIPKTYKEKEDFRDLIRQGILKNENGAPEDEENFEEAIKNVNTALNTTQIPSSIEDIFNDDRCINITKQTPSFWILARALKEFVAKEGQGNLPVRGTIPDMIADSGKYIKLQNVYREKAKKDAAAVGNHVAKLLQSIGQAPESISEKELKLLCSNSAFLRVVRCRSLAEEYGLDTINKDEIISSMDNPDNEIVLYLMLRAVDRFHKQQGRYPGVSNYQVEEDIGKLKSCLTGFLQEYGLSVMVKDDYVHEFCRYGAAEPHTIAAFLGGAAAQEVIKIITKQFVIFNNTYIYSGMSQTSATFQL
Test: Nedd8-Activating Enzyme (NAE) HTRF Assay
Assay type: biochemical
Details: 20 μM ATP
Experimental: Following manufacturer instructions, baculoviruses were generated with the Bac-to-Bac Expression System (Invitrogen) for the following proteins: untagged NAEα (APPBP1; NP_003896.1), N-terminally His-tagged NAEJ (UBE1C; NP_003959.3), untagged SAEα (SAE1; NP_005491.1), N-terminally His-tagged SAE3 (UBA2; NP_005490.1), N-terminally His-tagged murine UAE (UBE1X; NP_033483). NAEα/His-NAEβ and SAEα/His-SAEβ complexes were generated by co-infection of Sf9 cells, which were harvested after 48 hours. His-mUAE was generated by single infection of Sf9 cells and harvested after 72 hours. Expressed proteins were purified by affinity chromatography (Ni-NTA agarose, Qiagen) using standard buffers. Nedd8-Activating Enzyme (NAE) HTRF Assay. The NAE enzymatic reaction totaled 50 μL and contained 50 mM HEPES (pH 7.5), 0.05% BSA, 5 mM MgCl2, 20 μM ATP, 250 μM GSH, 0.01 μM Ubc12-GST, 0.075 μM Nedd8-Flag and 0.20 nM recombinant human NAE enzyme. The enzymatic reaction mixture, with and without compound inhibitor, was incubated at room temperature 24° C. for 105 minutes in a 384-well plate before termination with 25 μL of Stop/Detection buffer (0.1M HEPES pH 7.5, 0.05% Tween20, 20 mM EDTA, 410 mM KF, 0.53 nM Europium-Cryptate labeled monoclonal anti-FLAG M2 antibody (CisBio International) and 8.125 μg/mL PHYCOLINK goat anti-GST allophycocyanin (XL-APC) antibody (Prozyme)). After incubation for 1 hour at 24° C., quantification of the FRET was performed on the Analyst™ HT 96.384 (Molecular Devices).

Row | Compound | IC50 (bound given in nM) [nM] | IC50 (bound given in μM) [nM]
1 | NS(=O)(=O)OC[C@@H]1C[C@@H](Nc2ncnc3[nH]c(-c4ccccc4OCc4ccccc4)nc23)C[C@@H]1O [Compound I-68, [(1S,2S,4R)-4-({8-[2-(benzyloxy)phenyl]-9H-purin-6-yl}amino)-2-hydroxycyclopentyl]methyl sulfamate] | ≤ 500 | –
2 | CO[C@H]1Cc2ccccc2[C@H]1Nc1cc(N[C@@H]2C[C@H](COS(N)(=O)=O)[C@@H](O)[C@H]2O)ncn1 [Compound I-2, {(1R,2R,3S,4R)-2,3-dihydroxy-4-[(6-{[(1R,2S)-2-methoxy-2,3-dihydro-1H-inden-1-yl]-amino}pyrimidin-4-yl)amino]cyclopentyl}methyl sulfamate] | ≤ 500 | –
3 | CO[C@H]1c2ccccc2C[C@H]1Oc1cc(O[C@@H]2C[C@@H](COS(N)(=O)=O)[C@@H](O)C2)ncn1 [Compound I-77, {(1S,2S,4R)-2-hydroxy-4-[(6-{[(1S,2R)-1-methoxy-2,3-dihydro-1H-inden-2-yl]oxy}-pyrimidin-4-yl)oxy]cyclopentyl}methyl sulfamate] | > 500 | < 10000
4 | NS(=O)(=O)OC[C@H]1C[C@@H](Nc2ncnc3[nH]c(-c4ccccc4)nc23)[C@H](O)[C@@H]1O [Compound I-9, {(1R,2R,3S,4R)-2,3-dihydroxy-4-[(8-phenyl-9H-purin-6-yl)amino]cyclopentyl}-methyl sulfamate] | ≤ 500 | –
5 | NS(=O)(=O)OC[C@H]1C[C@@H](NC(=O)c2ccncc2)[C@H](O)[C@@H]1O [Compound I-28, [(1R,2R,3S,4R)-2,3-dihydroxy-4-(isonicotinoylamino)cyclopentyl]methyl sulfamate] | > 500 | < 10000
6 | CC1(C)C[C@H](Nc2cc(N[C@@H]3C[C@@H](COS(N)(=O)=O)[C@@H](O)C3)ncn2)c2ccccc21 [Compound I-65, {(1S,2S,4R)-4-[(6-{[(1S)-3,3-dimethyl-2,3-dihydro-1H-inden-1-yl]amino}-pyrimidin-4-yl)amino]-2-hydroxycyclopentyl}methyl sulfamate] | ≤ 500 | –
7 | NS(=O)(=O)OC[C@@H]1C[C@@H](Oc2ncnc3nc(-c4cnn(Cc5ccccc5)c4)[nH]c23)C[C@@H]1O [Compound I-129, ((1S,2S,4R)-4-{[8-(1-benzyl-1H-pyrazol-4-yl)-7H-purin-6-yl]oxy}-2-hydroxycyclopentyl)methyl sulfamate] | ≤ 500 | –
8 | NS(=O)(=O)OC[C@@H]1C[C@@H](Oc2cc(NCc3cccc4ccccc34)ncn2)C[C@@H]1O [Compound I-42, [(1S,2S,4R)-2-hydroxy-4-({6-[(1-naphthylmethyl)amino]pyrimidin-4-yl}-oxy)cyclopentyl]methyl sulfamate] | ≤ 500 | –
9 | C[C@H]1Cc2ccccc2[C@H]1Nc1cc(O[C@@H]2C[C@@H](COS(N)(=O)=O)[C@@H](O)C2)ncn1 [Compound I-43, {(1S,2S,4R)-2-hydroxy-4-[(6-{[(1S,2S)-2-methyl-2,3-dihydro-1H-inden-1-yl]-amino}pyrimidin-4-yl)oxy]cyclopentyl}methyl sulfamate] | ≤ 500 | –
10 | NS(=O)(=O)OC[C@@H]1C[C@@H](Nc2cc(N[C@H]3CCc4ccccc43)ncn2)[C@H](O)[C@@H]1O [Compound I-11, [(1S,2R,3S,4R)-4-({6-[(1S)-2,3-dihydro-1H-inden-1-ylamino]pyrimidin-4-yl}-amino)-2,3-dihydroxycyclopentyl]methyl sulfamate] | ≤ 500 | –

The remaining lines, values ahead:

Row | IC50 (bound given in nM) [nM] | IC50 (bound given in μM) [nM] | Compound
11 | ≤ 500 | – | NS(=O)(=O)OC[C@@H]1C[C@@H](Nc2ncnc(N[C@H]3CCc4ccccc43)n2)C[C@@H]1O [Compound I-153, [(1S,2S,4R)-4-({4-[(1S)-2,3-dihydro-1H-inden-1-ylamino}-1,3,5-triazin-2-yl}amino)-2-hydroxycyclopentyl]methyl sulfamate]
12 | > 500 | < 10000 | NS(=O)(=O)OC[C@@H]1C[C@@H](Oc2cc(OCc3ccc4ccccc4c3)ncn2)C[C@@H]1O [Compound I-141, ((1S,2S,4R)-2-hydroxy-4-{[6-(2-naphthylmethoxy)pyrimidin-4-yl]oxy}cyclopentyl)methyl sulfamate]
13 | ≤ 500 | – | NS(=O)(=O)OC[C@@H]1C[C@@H](Nc2ncnc3[nH]c(-c4ccccc4Cl)nc23)C[C@@H]1O [Compound I-34, ((1S,2S,4R)-4-{[8-(2-chlorophenyl)-9H-purin-6-yl]amino}-2-hydroxycyclopentyl)methyl sulfamate]
14 | – | > 10000 | Cc1nc(N)cc(N[C@@H]2C[C@H](COS(N)(=O)=O)[C@@H](O)[C@H]2O)n1 [Compound I-13, {(1R,2R,3S,4R)-4-[(6-amino-2-methylpyrimidin-4-yl)amino]-2,3-dihydroxycyclopentyl}methyl sulfamate]
15 | ≤ 500 | – | CO[C@H]1Cc2ccccc2[C@H]1Nc1cc(O[C@@H]2C[C@@H](CNS(N)(=O)=O)[C@@H](O)C2)ncn1 [Compound I-82, N-({(1S,2S,4R)-2-hydroxy-4-[(6-{[(1R,2S)-2-methoxy-2,3-dihydro-1H-inden-1-yl]amino}pyrimidin-4-yl)oxy]cyclopentyl}methyl)sulfamide]
16 | ≤ 500 | – | NS(=O)(=O)OC[C@@H]1C[C@@H](Nc2ncnc3[nH]c(C4CCCCC4)nc23)C[C@@H]1O [Compound I-128, {(1S,2S,4R)-4-[(8-cyclohexyl-9H-purin-6-yl)amino]-2-hydroxycyclopentyl}methyl sulfamate]
17 | > 500 | < 10000 | CN(C)C[C@H]1Cc2ccccc2[C@H]1Nc1cc(O[C@@H]2C[C@@H](COS(N)(=O)=O)[C@@H](O)C2)ncn1 [Compound I-53, ((1S,2S,4R)-4-{[6-({(1S,2R)-2-[(dimethylamino)methyl]-2,3-dihydro-1H-inden-1-yl}amino)pyrimidin-4-yl]oxy}-2-hydroxycyclopentyl)methyl sulfamate]
18 | ≤ 500 | – | CO[C@H]1Cc2ccccc2[C@H]1Nc1ncnc(N[C@@H]2C[C@H](COS(N)(=O)=O)[C@@H](O)[C@H]2O)n1 [Compound I-55, {(1R,2R,3S,4R)-2,3-dihydroxy-4-[(4-{[(1R,2S)-2-methoxy-2,3-dihydro-1H-inden-1-yl]amino}-1,3,5-triazin-2-yl)amino]cyclopentyl}methyl sulfamate]
19 | ≤ 500 | – | NS(=O)(=O)OC[C@H]1C[C@@H](Nc2cc(N[C@H]3CCCc4ccccc43)ncn2)[C@H](O)[C@@H]1O [Compound I-12, [(1R,2R,3S,4R)-2,3-dihydroxy-4-({6-[(1S)-1,2,3,4-tetrahydronaphthalen-1-ylamino]pyrimidin-4-yl}amino)cyclopentyl]methyl sulfamate]
20 | ≤ 500 | – | NS(=O)(=O)OC[C@@H]1C[C@@H](Nc2ncnc3[nH]c(-c4ccccc4C(F)(F)F)nc23)C[C@@H]1O [Compound I-122, [(1S,2S,4R)-2-hydroxy-4-({8-[2-(trifluoromethyl)phenyl]-9H-purin-6-yl}amino)cyclopentyl]methyl sulfamate]
21 | ≤ 500 | – | NS(=O)(=O)OC[C@H]1C[C@@H](Nc2cc(N[C@H]3CCc4c(F)cccc43)ncn2)[C@H](O)[C@@H]1O [Compound I-1, {(1R,2R,3S,4R)-4-[(6-{[(1S)-4-fluoro-2,3-dihydro-1H-inden-1-yl]amino}-pyrimidin-4-yl)-amino]-2,3-dihydroxycyclopentyl}methyl sulfamate]
22 | > 500 | < 10000 | OC[C@@H]1C[C@@H](Nc2ncnc3[nH]c(-c4cccc5c4OCCO5)nc23)C[C@@H]1O [Compound I-138, (1S,2S,4R)-4-{[8-(2,3-dihydro-1,4-benzodioxin-5-yl)-9H-purin-6-yl]amino}-2-(hydroxymethyl)cyclopentanol]
